Test [1] is described as follows: NIH-3T3 fibroblast cytotoxicity, dose response, cytotoxicity control, cell-based, fluorescence, Alamar Blue, secondary assay (AID 2327).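 Also: NIH-3T3 mouse fibroblasts cultured with fluconazole at 8 µg/mL.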 It is filed as functional. In general terms: The colour change of resazurin is a common sign of viable cells or microbes.
Test [2] is described as follows: C. albicans growth with fluconazole, confirmation, fluorescence, retest (AID 2467). It is filed as functional, cell-based.
Test [3] is described as follows: growth suppression of PTEN-null colon cells, dose response, cell-based, HCT116 PTEN knockout (AID 1047).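 Also: HCT116 colon tumor cells with PTEN knocked out; cells exposed to compound for 60 hours before readout; potency for loss of cell viability measured by luminescence.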 It is filed as functional.
The target of test [4] is T1, Sphingosine 1-phosphate receptor 4 (Homo sapiens, UniProt O95977).
T1 sequence (O95977 whole entry): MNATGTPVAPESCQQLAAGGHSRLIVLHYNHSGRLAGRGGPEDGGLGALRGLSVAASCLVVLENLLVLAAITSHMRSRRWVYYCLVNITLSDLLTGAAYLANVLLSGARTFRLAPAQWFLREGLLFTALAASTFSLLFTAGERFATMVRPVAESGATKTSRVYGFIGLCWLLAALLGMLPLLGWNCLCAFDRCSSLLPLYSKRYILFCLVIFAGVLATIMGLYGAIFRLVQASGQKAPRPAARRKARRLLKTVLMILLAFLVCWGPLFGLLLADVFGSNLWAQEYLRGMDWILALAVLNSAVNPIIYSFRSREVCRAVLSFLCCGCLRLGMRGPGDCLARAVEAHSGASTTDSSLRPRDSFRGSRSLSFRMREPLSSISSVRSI
In words: Late stage fluorescence dose response cell-based screening assay for antagonists of the Sphingosine 1-Phosphate Receptor 4 (S1P4). [Related pubchem assays: 1524 (Confirmation screen (S1P4 antagonists).), 1510 (Primary screen (S1P4 antagonists).), 1853 (Summary AID (S1P4 antagonists).), 1692 (Dose response screen (S1P4 antagonists).)]. It is filed as functional.

A short description of test [5]: growth suppression of beta-catenin-knockout colon cells, dose response, cell-based, HCT116, human colon tumor (AID 1045).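 Also: HCT116 colon tumor cells with beta catenin knocked out; cells exposed to compound for 60 hours.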 It is filed as functional.
Test [6] concerns the target T1, Sphingosine 1-phosphate receptor 4. In words: Fluorescence dose response cell-based high throughput screening assay for antagonists of the Sphingosine 1-Phosphate Receptor 4 (S1P4). [Related pubchem assays: 1524 (Confirmation in triplicates.), 1510 (Primary screen.)]. It is filed as functional.
For test [7], the target named is Sphingosine 1-phosphate receptor 1 (Homo sapiens, UniProt P21453). It is filed as functional.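 Also: Tango beta-arrestin reporter U2OS cells stimulated with S1P near its EC80; inhibitor potency meaning antagonism of receptor activation by the natural agonist.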
Sequence of Sphingosine 1-phosphate receptor 1 (P21453 whole entry): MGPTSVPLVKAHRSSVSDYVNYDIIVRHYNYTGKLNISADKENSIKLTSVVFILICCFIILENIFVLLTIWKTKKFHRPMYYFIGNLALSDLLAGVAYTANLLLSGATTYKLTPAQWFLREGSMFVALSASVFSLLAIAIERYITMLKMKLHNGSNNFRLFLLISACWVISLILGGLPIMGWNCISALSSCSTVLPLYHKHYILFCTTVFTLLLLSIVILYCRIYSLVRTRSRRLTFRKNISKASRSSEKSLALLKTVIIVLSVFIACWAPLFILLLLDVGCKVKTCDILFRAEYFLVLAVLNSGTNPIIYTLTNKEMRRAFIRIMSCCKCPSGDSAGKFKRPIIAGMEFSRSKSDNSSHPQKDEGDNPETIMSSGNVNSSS
The target of test [8] is T2, Heat shock factor protein 1 (Mus musculus, UniProt P38532).
T2 sequence (P38532 whole entry): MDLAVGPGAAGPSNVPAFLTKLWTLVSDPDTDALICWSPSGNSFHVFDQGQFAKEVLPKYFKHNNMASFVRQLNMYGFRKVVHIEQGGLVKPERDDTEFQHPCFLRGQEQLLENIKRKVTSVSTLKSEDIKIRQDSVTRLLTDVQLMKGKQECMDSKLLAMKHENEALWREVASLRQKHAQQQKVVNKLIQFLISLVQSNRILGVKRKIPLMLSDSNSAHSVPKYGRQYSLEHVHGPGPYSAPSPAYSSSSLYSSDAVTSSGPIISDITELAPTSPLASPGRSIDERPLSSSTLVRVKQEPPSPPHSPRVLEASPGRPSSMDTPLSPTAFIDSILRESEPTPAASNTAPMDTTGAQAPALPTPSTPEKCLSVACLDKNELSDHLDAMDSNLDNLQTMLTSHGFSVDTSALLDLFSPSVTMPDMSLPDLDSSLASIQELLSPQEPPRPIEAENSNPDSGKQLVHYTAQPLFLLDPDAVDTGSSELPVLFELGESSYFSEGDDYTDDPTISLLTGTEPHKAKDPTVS
In words: HSF1 potentiators in luciferase reporter cells, confirmation, cell-based, NIH3T3, luminescence, dose retest (AID 435004).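 Also: stress induced by proteasome inhibitor MG132 added 30 min after compound; luciferase reporter driven by HSF1 response element in NIH3T3 cells; actives raise luminescence as potentiators of the MG132 stress response.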 It is filed as functional. (In general: A reporter such as luciferase makes a cellular process visible.)

Test [9] deals with T3, Replicative DNA helicase DnaB (Mycobacterium tuberculosis, UniProt P9WMR3).
T3 sequence (P9WMR3 whole entry): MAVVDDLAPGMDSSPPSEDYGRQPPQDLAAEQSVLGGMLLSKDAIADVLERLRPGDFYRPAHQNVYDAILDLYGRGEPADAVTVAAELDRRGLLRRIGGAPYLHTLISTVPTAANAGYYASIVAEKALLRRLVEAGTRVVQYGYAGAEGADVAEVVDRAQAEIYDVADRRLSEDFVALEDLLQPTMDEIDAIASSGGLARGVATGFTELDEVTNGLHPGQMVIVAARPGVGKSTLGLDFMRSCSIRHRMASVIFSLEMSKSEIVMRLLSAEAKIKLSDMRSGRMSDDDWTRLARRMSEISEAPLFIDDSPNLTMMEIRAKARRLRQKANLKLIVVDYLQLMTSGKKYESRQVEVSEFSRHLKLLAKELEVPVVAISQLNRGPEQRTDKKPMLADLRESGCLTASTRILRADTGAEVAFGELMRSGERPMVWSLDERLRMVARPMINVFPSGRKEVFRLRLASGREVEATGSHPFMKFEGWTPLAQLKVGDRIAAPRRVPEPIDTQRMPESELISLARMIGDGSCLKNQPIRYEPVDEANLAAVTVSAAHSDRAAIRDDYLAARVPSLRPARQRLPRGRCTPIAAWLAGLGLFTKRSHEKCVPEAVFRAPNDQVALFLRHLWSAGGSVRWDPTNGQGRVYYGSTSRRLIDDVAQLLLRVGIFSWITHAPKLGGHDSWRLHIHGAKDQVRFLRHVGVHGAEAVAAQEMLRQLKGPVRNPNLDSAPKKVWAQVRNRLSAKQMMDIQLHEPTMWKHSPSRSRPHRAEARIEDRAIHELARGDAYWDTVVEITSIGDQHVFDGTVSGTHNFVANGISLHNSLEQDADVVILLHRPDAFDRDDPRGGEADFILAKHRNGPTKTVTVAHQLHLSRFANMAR
In words: DnaB intein splicing inhibitors, dose response, biochemical, cell-free fluorescence (AID 449749). It is filed as functional.

Test [10] has as its target T4, Protein RecA (Mycobacterium tuberculosis, UniProt P9WHJ3).
T4 sequence (P9WHJ3 whole entry): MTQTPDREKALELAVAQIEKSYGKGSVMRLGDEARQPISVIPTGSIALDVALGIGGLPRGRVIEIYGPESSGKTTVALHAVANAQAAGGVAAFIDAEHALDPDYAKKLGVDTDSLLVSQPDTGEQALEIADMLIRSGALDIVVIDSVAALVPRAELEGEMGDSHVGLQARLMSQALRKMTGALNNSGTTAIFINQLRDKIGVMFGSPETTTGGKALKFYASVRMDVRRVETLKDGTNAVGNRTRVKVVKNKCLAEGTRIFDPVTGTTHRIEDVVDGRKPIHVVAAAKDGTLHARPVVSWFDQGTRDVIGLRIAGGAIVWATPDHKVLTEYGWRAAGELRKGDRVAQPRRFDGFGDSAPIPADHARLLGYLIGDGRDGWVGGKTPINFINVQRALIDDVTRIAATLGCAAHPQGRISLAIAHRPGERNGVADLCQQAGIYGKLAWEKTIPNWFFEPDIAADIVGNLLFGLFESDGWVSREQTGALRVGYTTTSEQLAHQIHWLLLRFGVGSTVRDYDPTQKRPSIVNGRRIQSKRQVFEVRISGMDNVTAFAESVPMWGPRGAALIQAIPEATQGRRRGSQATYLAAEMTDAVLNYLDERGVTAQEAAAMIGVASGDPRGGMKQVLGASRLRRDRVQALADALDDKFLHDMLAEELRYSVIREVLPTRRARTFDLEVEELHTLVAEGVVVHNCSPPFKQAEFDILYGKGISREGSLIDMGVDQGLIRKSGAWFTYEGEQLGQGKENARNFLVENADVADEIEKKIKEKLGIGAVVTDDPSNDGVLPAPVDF
In words: Fluorescence Cell-Free Homogeneous Dose Retest to Identify Inhibitors of RecA-Intein Splicing Activity. [Related pubchem assays (depositor defined):AID2097, AID2223, AID489010, AID492950]. It is filed as functional.

Test [11] addresses Peroxisome proliferator-activated receptor gamma/Nuclear receptor corepressor 2 (Homo sapiens, UniProt P37231+Q9Y618). In words: Counterscreen for NR2E3 inverse agonists: TR-FRET-based biochemical high throughput dose response assay to identify inverse agonists of the interaction between peroxisome proliferator-activated receptor gamma (PPARg) and nuclear receptor co-repressor 2 (NCOR2). It is filed as functional. Background: The purpose of a counterscreen is to sort out artefacts and off-target activity.

Test [12] has as its target Photoreceptor-specific nuclear receptor (Homo sapiens, UniProt Q9Y5X4). Briefly: NR2E3 inverse agonists, dose response, biochemical, TR-FRET (AID 463256). It is filed as functional.
Test [13] deals with Cytochrome P450 2C19 (Homo sapiens, UniProt P33261). In words: qHTS Assay for Inhibitors and Substrates of Cytochrome P450 2C19. [Related pubchem assays: 410 ]. It is filed as ADME. To be noted: read-out: Potency.
Sequence of Cytochrome P450 2C19 (P33261 whole entry): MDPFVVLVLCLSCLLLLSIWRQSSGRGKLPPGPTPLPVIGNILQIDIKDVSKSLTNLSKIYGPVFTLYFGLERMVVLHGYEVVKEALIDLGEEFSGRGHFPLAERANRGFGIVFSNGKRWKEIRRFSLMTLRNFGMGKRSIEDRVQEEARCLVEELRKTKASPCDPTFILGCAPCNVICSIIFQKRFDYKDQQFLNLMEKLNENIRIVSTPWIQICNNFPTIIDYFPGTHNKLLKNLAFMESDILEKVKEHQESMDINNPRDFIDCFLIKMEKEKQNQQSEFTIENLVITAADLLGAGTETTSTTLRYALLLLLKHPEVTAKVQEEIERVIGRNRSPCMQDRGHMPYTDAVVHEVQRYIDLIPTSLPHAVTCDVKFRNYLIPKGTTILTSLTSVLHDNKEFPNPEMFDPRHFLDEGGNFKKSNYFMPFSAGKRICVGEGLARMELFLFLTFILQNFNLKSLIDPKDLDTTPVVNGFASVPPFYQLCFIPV
The target of test [14] is Cytochrome P450 2D6 (Homo sapiens, UniProt P10635). Briefly: qHTS Assay for Inhibitors and Substrates of Cytochrome P450 2D6. [Related pubchem assays: 410 ]. It is filed as ADME. To be noted: read-out: Potency.
Sequence of Cytochrome P450 2D6 (P10635 whole entry): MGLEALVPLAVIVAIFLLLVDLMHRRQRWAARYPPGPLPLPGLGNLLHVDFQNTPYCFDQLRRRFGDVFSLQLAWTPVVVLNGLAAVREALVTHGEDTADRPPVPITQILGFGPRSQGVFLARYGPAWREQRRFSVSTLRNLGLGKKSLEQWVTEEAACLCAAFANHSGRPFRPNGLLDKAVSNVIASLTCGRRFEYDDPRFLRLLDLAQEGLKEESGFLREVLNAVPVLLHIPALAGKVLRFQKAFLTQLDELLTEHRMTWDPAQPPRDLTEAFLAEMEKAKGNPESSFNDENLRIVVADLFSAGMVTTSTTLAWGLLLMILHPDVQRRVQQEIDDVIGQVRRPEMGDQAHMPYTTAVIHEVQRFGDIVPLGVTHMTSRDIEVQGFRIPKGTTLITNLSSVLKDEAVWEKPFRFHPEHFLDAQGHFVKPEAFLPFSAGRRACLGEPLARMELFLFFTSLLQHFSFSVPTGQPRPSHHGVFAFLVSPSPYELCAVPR

Molecules are shown by their SMILES. Activity calls are given as the source filed them. Bounds are passed on as bounds.

Sequence of Peroxisome proliferator-activated receptor gamma/Nuclear receptor corepressor 2 (P37231 whole entry): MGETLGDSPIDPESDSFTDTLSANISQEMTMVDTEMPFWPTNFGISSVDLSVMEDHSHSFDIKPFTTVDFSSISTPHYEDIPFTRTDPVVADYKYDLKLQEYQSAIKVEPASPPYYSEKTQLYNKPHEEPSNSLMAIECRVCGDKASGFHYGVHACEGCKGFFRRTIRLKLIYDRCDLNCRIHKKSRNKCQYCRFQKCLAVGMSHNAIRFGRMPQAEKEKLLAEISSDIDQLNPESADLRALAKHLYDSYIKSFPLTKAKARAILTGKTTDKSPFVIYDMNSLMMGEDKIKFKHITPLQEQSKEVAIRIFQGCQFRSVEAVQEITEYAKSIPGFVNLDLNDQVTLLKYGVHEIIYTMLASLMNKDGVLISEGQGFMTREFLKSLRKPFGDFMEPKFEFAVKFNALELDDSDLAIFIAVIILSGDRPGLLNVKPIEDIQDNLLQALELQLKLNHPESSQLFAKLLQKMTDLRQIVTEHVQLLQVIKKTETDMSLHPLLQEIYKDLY
Sequence of Peroxisome proliferator-activated receptor gamma/Nuclear receptor corepressor 2 (Q9Y618 whole entry): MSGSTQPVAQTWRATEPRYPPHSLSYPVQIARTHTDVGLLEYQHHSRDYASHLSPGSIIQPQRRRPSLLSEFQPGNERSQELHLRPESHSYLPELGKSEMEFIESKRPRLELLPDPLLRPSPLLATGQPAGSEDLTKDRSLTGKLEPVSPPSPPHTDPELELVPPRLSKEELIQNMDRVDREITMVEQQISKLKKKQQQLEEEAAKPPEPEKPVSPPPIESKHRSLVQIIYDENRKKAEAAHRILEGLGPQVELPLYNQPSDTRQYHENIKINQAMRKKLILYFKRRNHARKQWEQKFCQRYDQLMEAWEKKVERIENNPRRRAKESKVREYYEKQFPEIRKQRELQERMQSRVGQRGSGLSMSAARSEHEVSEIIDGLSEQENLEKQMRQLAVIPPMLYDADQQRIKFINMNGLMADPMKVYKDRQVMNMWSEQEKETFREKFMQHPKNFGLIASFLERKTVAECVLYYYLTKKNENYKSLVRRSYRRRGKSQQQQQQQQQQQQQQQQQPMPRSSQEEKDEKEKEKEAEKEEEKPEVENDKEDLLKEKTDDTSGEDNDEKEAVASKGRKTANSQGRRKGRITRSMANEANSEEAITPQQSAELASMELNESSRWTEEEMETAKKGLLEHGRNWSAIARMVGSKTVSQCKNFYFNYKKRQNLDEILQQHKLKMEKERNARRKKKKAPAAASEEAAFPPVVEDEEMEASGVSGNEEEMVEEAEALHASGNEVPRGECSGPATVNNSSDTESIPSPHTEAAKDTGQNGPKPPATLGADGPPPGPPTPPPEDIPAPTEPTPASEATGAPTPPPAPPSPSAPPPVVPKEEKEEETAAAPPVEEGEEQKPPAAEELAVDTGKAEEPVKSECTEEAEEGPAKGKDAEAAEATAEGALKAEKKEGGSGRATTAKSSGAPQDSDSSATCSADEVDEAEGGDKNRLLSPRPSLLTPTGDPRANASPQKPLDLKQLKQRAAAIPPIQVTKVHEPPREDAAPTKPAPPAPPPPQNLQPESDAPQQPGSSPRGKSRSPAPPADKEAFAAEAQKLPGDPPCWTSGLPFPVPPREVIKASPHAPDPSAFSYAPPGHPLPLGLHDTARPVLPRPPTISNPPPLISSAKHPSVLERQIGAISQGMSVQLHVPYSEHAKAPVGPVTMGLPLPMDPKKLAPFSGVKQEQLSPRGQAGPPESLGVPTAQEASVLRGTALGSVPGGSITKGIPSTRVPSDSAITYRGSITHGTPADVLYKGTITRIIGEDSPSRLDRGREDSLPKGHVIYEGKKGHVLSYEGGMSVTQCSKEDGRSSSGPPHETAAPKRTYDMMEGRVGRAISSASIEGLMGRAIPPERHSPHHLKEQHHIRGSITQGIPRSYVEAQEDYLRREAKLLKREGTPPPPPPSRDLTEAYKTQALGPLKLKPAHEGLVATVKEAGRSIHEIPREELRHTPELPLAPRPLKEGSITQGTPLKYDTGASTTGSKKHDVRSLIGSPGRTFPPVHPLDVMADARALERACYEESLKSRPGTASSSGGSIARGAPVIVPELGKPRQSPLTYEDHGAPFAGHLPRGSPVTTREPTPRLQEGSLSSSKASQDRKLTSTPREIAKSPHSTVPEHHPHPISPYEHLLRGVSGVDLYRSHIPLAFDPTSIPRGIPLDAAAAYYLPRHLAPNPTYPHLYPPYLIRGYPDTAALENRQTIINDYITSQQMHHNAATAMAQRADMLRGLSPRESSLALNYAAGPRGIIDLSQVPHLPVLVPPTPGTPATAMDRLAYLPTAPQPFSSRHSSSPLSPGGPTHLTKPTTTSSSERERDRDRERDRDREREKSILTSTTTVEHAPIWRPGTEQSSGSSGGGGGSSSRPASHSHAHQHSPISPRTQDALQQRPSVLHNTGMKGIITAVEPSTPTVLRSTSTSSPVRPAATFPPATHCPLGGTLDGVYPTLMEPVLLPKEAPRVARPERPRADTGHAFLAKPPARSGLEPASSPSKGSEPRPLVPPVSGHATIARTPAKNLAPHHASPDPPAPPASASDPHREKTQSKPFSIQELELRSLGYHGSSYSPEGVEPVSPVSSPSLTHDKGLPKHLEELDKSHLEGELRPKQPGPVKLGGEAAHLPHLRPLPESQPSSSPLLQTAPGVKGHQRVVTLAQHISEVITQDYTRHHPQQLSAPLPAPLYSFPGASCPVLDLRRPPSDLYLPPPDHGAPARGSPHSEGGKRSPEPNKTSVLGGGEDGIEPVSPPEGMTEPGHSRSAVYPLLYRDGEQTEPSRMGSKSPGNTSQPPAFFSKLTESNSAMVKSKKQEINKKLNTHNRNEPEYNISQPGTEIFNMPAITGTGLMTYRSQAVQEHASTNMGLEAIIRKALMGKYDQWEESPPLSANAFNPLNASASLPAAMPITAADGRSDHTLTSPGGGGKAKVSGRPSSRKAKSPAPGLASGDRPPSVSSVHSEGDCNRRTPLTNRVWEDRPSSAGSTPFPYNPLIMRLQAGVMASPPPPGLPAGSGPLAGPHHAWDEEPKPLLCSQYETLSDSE
Sequence of Photoreceptor-specific nuclear receptor (Q9Y5X4 whole entry): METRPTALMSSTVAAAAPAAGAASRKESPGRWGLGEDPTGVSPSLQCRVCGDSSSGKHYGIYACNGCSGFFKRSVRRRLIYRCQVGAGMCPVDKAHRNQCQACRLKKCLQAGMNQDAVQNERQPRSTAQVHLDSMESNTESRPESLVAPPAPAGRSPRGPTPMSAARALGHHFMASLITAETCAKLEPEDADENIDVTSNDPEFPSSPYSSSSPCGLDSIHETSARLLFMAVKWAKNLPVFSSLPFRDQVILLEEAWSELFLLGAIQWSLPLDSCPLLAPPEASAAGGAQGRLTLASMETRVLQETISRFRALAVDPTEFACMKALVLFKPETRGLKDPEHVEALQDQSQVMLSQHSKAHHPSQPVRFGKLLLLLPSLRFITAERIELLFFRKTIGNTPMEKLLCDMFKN

In the case of `O=S(=O)(c1ccc(Cl)c(Cl)c1)c1snnc1-c1ccccc1`, the EC50 (in general, the midpoint of the concentration-response curve) in [1] was 18.3 µM (active); in [2], > 38 µM (not active); in [3] it was 0.117 µM (active); in test [5], 0.083 µM (active); in test [8], 9.7 µM (active); in [10] it was 0.504 µM (active). The half-maximal inhibitory concentration (IC50) (in general, the point on the concentration scale where inhibition reaches its midpoint) was 10.8 µM (not active) in [4], 0.524 µM (active) in test [6] and 4.29 µM (active) in test [7]. Further, the AC50 in test [9] was 2.89 µM (active).
As to `NC(=O)c1ccc(NC(=O)CNC(=O)c2sc3ccccc3c2Cl)cc1`, the half-maximal inhibitory concentration (IC50) in test [11] was 2.8 µM (active); in test [12], 4.85 µM (active).
As for `COC(=O)NC(/C(C(=O)OC)=C(\C)NCc1ccccc1)c1cccc(C)c1` (centres undefined), the AC50 is 6.31 µM (inconclusive) in test [13] and 7.94 µM (inconclusive) in test [14].

For the origin of these results see ChEMBL document CHEMBL1201862, “PubChem BioAssay data set” (2004).
